Source: patent publication US20090118363A1, “SESAMIN-CLASS COMPOUND-CONTAINING FOODS OR BEVERAGES FOR ANIMALS” (priority 2006, published 2009)

Experiment: Test of dissolving sesamin-class compounds into fats and oils (solubility)
Assay type: physicochemical
Method: Solubility of sesamin-class compounds to various fats and oils was determined. Sesamin, episesamin, and a mixture of sesamin and episesamin, sesamin:episesamin=51.1:48.2 (Takemoto Oil and Fat Co., Ltd.), were used as the sesamin-class compounds. The sesamin and the episesamin were prepared by isolating them from the mixture and purifying them. The respective sesamin-class compounds were dissolved into five different kinds of fats and oils, 100 g each, shown in Table 1 to determine a limit amount (solubility) of the respective sesamin-class compounds that can be dissolved completely. It is understood from Table 1 that the sesamin, the episesamin, and the mixture of the sesamin and the episesamin have different solubilities, and that the solubility varies in a manner that depends on the types of the fats and oils.

Row | Structure (SMILES) | Solubility in fats and oils: DG [%] | Solubility in fats and oils: MCT-1 [%] | Solubility in fats and oils: MCT-2 [%] | Solubility in fats and oils: olive oil [%] | Solubility in fats and oils: wheatgerm oil [%]
1 | c1cc2c(cc1[C@H]1OC[C@H]3[C@@H]1CO[C@@H]3c1ccc3c(c1)OCO3)OCO2 [EPISESAMIN, episesamin] | 1.0 | 2.5 | 2.5 | 0.5 | 0.75
2 | c1cc2c(cc1[C@H]1OC[C@H]3[C@@H]1CO[C@@H]3c1ccc3c(c1)OCO3)OCO2 [SESAMIN, sesamin] | 1.25 | 4.0 | 2.0 | 0.75 | 0.75
